Assays:
Assay in all cases: DTNB spectrophotometric assay, nonlinear regression
Type in all cases: biochemical, Brassica juncea
Details in all cases: 30 °C
Bju.IPMS1-B2 = test system: Bju.IPMS1-B2
Bju.IPMS1-A2 = test system: Bju.IPMS1-A2
Bju.IPMS1-A1 = test system: Bju.IPMS1-A1
Bju.IPMS1-B1 = test system: Bju.IPMS1-B1

Structure (SMILES) | Km (Bju.IPMS1-B2; 0.5 mM acetyl-CoA) [µM] | Km (Bju.IPMS1-A2; 0.5 mM acetyl-CoA) [µM] | Km (Bju.IPMS1-A1; 0.5 mM acetyl-CoA) [µM] | Km (Bju.IPMS1-B1; 0.5 mM acetyl-CoA) [µM] | Km (Bju.IPMS1-B2; 1 mM 2-oxoisovalerate) [µM] | Km (Bju.IPMS1-A2; 1 mM 2-oxoisovalerate) [µM] | Km (Bju.IPMS1-A1; 1 mM 2-oxoisovalerate) [µM] | Km (Bju.IPMS1-B1; 1 mM 2-oxoisovalerate) [µM]
CC(C)C(=O)C(=O)O [2-oxoisovalerate, 3-methyl-2-oxobutanoate] | 231 ± 47.1 | 144 ± 40.9 | 158 ± 35.4 | 217 ± 67.2 |  |  |  | 
CC(=O)SCCNC(=O)CCNC(=O)[C@H](O)C(C)(C)COP(=O)(O)OP(=O)(O)OC[C@H]1O[C@@H](n2cnc3c(N)ncnc32)[C@H](O)[C@@H]1OP(=O)(O)O [acetyl-CoA] |  |  |  |  | 532 ± 91.9 | 406 ± 75.9 | 770 ± 211 | 1260 ± 369

Reference: doi:10.1101/2024.06.14.598950v1 (biorxiv, 2024)
